The text below walks through data of patent US20250074891A1 (Anaxis Pharma Pty Ltd., priority 2021, published 2025).

Holding throughout (settings): Table 35
Assay [1] deals with RIP3 (Homo sapiens (Human), UniProt Q9Y572). Briefly: KINOMEscan binding assay, RIP3. The method, then: (§1) Kinase assays. For most assays, kinase-tagged T7 phage strains were grown in parallel in 24-well blocks in an E. coli host derived from the BL21 strain. E. coli were grown to log-phase and infected with T7 phage from a frozen stock (multiplicity of infection=0.4) and incubated with shaking at 32° C. until lysis (90-150 minutes).
(§2) The Hill Slope was set to −1.

In assay [2] the target is RIP1 (Homo sapiens (Human), UniProt Q13546). Briefly: KINOMEscan binding assay, RIP1.
Assay [3] deals with MLKL (full length) (Homo sapiens (Human), UniProt Q8NB16). In words: KINOMEscan binding assay, MLKL (full length). The procedure:
as §1, §2

One may read the Kd as the equilibrium constant for the complex coming apart. A higher Kd goes with a looser complex.

Chain of MLKL (full length) (Q8NB16 whole entry): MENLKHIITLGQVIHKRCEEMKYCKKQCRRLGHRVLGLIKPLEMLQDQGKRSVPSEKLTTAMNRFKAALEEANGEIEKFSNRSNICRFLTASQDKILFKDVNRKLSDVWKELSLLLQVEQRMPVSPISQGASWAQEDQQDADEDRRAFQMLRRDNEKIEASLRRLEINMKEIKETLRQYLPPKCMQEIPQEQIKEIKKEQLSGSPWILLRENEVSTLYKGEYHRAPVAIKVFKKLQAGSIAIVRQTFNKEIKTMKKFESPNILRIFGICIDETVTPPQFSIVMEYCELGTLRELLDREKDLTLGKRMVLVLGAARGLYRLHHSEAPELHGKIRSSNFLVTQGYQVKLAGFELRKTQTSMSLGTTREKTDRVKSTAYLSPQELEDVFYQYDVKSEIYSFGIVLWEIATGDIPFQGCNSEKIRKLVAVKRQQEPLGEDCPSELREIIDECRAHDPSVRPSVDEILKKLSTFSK
Chain of RIP1 (Q13546 whole entry): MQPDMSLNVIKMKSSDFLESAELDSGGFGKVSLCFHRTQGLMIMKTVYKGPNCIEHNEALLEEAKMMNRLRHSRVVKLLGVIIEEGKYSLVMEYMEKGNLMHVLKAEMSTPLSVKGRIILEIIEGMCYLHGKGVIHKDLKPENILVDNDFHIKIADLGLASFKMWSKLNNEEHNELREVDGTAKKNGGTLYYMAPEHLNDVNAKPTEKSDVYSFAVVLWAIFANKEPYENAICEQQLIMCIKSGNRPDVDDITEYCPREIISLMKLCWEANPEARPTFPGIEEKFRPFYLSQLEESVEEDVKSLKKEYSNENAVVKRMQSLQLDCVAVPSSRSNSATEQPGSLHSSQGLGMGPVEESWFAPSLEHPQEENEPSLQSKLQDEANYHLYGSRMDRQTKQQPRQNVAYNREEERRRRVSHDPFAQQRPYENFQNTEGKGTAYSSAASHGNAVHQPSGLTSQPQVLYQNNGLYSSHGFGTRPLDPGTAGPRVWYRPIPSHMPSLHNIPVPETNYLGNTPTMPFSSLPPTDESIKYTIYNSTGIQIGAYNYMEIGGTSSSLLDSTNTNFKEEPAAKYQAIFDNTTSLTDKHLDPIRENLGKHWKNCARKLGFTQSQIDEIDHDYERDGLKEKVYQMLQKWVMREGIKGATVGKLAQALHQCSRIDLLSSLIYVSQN
Chain of RIP3 (Q9Y572 whole entry): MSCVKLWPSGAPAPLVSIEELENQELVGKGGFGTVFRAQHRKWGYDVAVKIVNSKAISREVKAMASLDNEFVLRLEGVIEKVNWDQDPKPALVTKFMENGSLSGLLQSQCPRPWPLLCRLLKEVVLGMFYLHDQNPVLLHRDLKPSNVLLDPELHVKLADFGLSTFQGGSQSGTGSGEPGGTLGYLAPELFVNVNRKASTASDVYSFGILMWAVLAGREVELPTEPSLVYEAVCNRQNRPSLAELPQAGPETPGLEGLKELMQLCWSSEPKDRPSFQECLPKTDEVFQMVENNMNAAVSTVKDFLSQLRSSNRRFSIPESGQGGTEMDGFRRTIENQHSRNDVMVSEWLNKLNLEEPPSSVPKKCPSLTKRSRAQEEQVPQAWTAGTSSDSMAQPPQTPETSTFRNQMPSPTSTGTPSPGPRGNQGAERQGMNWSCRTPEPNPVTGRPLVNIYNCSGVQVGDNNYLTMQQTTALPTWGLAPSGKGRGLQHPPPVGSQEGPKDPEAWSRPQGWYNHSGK

Consider `Cc1cnc(Nc2[nH]nc(-c3ccc(NS(=O)(=O)CC(F)(F)F)c(OCc4ccc(F)c(Cl)c4)c3)c2C(N)=O)cn1` [Compound 155, 3-(3-((3-chloro-4-fluorobenzyl)oxy)-4-((2,2,2-trifluoroethyl)sulfonamido)phenyl)-5-((5-methylpyrazin-2-yl)amino)-1H-pyrazole-4-carboxamide], for which the figures for the Kd in assay [1], in assay [2] and in assay [3] were greater than 30 µM, greater than 30 µM and less than 0.01 µM, respectively.

Regarding `CCS(=O)(=O)Nc1ccc(-c2n[nH]c(Nc3cnccn3)c2C(N)=O)cc1OCc1ccc(F)cn1` [Compound 156, 3-(4-(ethylsulfonamido)-3-((5-fluoropyridin-2-yl)methoxy)phenyl)-5-(pyrazin-2-ylamino)-1H-pyrazole-4-carboxamide], the Kd is greater than 30 µM in assay [1], greater than 30 µM in assay [2] and less than 0.01 µM in assay [3].

`COc1cnc(Nc2[nH]nc(-c3ccc(NS(=O)(=O)CC(F)(F)F)c(OCc4ccc(Cl)cc4)c3)c2C(N)=O)cn1` [Compound 157, 3-(3-((4-chlorobenzyl)oxy)-4-((2,2,2-trifluoroethyl)sulfonamido)phenyl)-5-((5-methoxypyrazin-2-yl)amino)-1H-pyrazole-4-carboxamide]: the Kd in assay [1] was greater than 30 µM; in assay [2], greater than 30 µM; in assay [3] it was less than 0.01 µM.

Regarding `CCS(=O)(=O)Nc1ccc(-c2n[nH]c(Nc3cnc(C4CC4)cn3)c2C(N)=O)cc1` [Compound 158, 5-((5-cyclopropylpyrazin-2-yl)amino)-3-(4-(ethylsulfonamido)phenyl)-1H-pyrazole-4-carboxamide], the Kd is greater than 30 µM in assay [1], greater than 30 µM in assay [2] and less than 0.01 µM in assay [3].

For the compound `COc1ccc(Nc2[nH]nc(-c3ccc(NS(=O)(=O)CC(F)(F)F)c(OCc4ccc(F)cc4)c3)c2C(N)=O)cn1` [Compound 159, 3-(3-((4-fluorobenzyl)oxy)-4-((2,2,2-trifluoroethyl)sulfonamido)phenyl)-5-((6-methoxypyridin-3-yl)amino)-1H-pyrazole-4-carboxamide], the values for the Kd in assay [1], in assay [2] and in assay [3] were greater than 30 µM, greater than 30 µM and less than 0.01 µM, respectively.

As for `NC(=O)c1c(-c2ccc(NS(=O)(=O)CC(F)(F)F)c(OCc3ccc(F)c(F)c3)c2)n[nH]c1Nc1ccccn1` [Compound 160, 3-(3-((3,4-difluorobenzyl)oxy)-4-((2,2,2-trifluoroethyl)sulfonamido)phenyl)-5-(pyridine-2-ylamino)-1H-pyrazole-4-carboxamide], the figures for the Kd in assay [1], in assay [2] and in assay [3] were greater than 30 µM, greater than 30 µM and less than 0.01 µM, respectively.

In the case of `NC(=O)c1c(-c2ccc(NS(=O)(=O)CC(F)(F)F)c(OC3(c4ccccc4)CC3)c2)n[nH]c1Nc1cnccn1` [Compound 161, 3-(3-(1-phenylcyclopropoxy)-4-((2,2,2-trifluoroethyl)sulfonamido)phenyl)-5-(pyrazin-2-ylamino)-1H-pyrazole-4-carboxamide], the Kd in assay [1] is greater than 30 µM; in assay [2] it was greater than 30 µM; in assay [3] it was less than 0.01 µM.

As to `Cc1cnc(Nc2[nH]nc(-c3ccc(NS(=O)(=O)CC(F)(F)F)c(OCc4ccc(Cl)cc4)c3)c2C(N)=O)cn1` [Compound 162, 3-(3-((4-chlorobenzyl)oxy)-4-((2,2,2-trifluoroethyl)sulfonamido)phenyl)-5-((5-methylpyrazin-2-yl)amino)-1H-pyrazole-4-carboxamide], the Kd in assay [1] is greater than 30 µM; in assay [2], greater than 30 µM; in assay [3], less than 0.01 µM.

For `Cc1cnc(Nc2[nH]nc(-c3ccc(NS(=O)(=O)CC(F)(F)F)c(OCc4ccc(F)cc4)c3)c2C(N)=O)cn1` [Compound 163, 3-(3-((4-fluorobenzyl)oxy)-4-((2,2,2-trifluoroethyl)sulfonamido)phenyl)-5-((5-methylpyrazin-2-yl)amino)-1H-pyrazole-4-carboxamide], the Kd in assay [1] was greater than 30 µM; in assay [2] it was greater than 30 µM; in assay [3] it was less than 0.01 µM.

In the case of `C[C@H](Oc1cc(-c2n[nH]c(Nc3cnccn3)c2C(N)=O)ccc1NS(=O)(=O)CC(F)(F)F)c1ccc(F)cc1` [Compound 164, (S)-3-(3-(1-(4-fluorophenyl)ethoxy)-4-((2,2,2-trifluoroethyl)sulfonamido)phenyl)-5-(pyrazin-2-ylamino)-1H-pyrazole-4-carboxamide], the Kd is greater than 30 µM in assay [1], greater than 30 µM in assay [2] and less than 0.01 µM in assay [3].

Consider `NC(=O)c1c(-c2ccc(NS(=O)(=O)CC(F)(F)F)c(OCc3ccc(Cl)c(F)c3)c2)n[nH]c1Nc1cnccn1` [Compound 165, 3-(3-((4-chloro-3-fluorobenzyl)oxy)-4-((2,2,2-trifluoroethyl)sulfonamido)phenyl)-5-(pyrazin-2-ylamino)-1H-pyrazole-4-carboxamide], for which the Kd in assay [1] is greater than 30 µM; in assay [2], greater than 30 µM; in assay [3], less than 0.01 µM.

`CCS(=O)(=O)Nc1ccc(-c2n[nH]c(Nc3cnccn3)c2C(N)=O)cc1OCc1ccc(Cl)c(F)c1` [Compound 166, 3-(3-((4-chloro-3-fluorobenzyl)oxy)-4-(ethylsulfonamido)phenyl)-5-(pyrazin-2-ylamino)-1H-pyrazole-4-carboxamide]: the figures for the Kd in assay [1], in assay [2] and in assay [3] were greater than 30 µM, greater than 30 µM and less than 0.01 µM, respectively.

As for `NC(=O)c1c(-c2ccc(NS(=O)(=O)CC(F)(F)F)c(Oc3cccc(F)c3)c2)n[nH]c1Nc1cnccn1` [Compound 167, 3-(3-(3-fluorophenoxy)-4-((2,2,2-trifluoroethyl)sulfonamido)phenyl)-5-(pyrazin-2-ylamino)-1H-pyrazole-4-carboxamide], the Kd in assay [1] is greater than 30 µM; in assay [2] it was greater than 30 µM; in assay [3], less than 0.01 µM.

Turning to `NC(=O)c1c(-c2ccc(NS(=O)(=O)CC(F)(F)F)c(Oc3ccc(Cl)cc3)c2)n[nH]c1Nc1cnccn1` [Compound 168, 3-(3-(4-chlorophenoxy)-4-((2,2,2-trifluoroethyl)sulfonamido)phenyl)-5-(pyrazin-2-ylamino)-1H-pyrazole-4-carboxamide], the Kd in assay [1] was greater than 30 µM; in assay [2] it was greater than 30 µM; in assay [3] it was less than 0.01 µM.

On to `NC(=O)c1c(-c2ccc(NS(=O)(=O)C3CC3)c(OCc3ccc(F)cc3)c2)n[nH]c1Nc1cnccn1` [Compound 169, 3-(4-(cyclopropanesulfonamido)-3-((4-fluorobenzyl)oxy)phenyl)-5-(pyrazin-2-ylamino)-1H-pyrazole-4-carboxamide], for which the Kd was greater than 30 µM in assay [1], greater than 30 µM in assay [2] and less than 0.01 µM in assay [3].

As to `NC(=O)c1c(-c2ccc(NS(=O)(=O)CC(F)(F)F)c(OCc3ccc(F)cc3)c2)n[nH]c1Nc1cnccn1` [Compound 170, 3-(3-((4-fluorobenzyl)oxy)-4-((2,2,2-trifluoroethyl)sulfonamido)phenyl)-5-(pyrazin-2-ylamino)-1H-pyrazole-4-carboxamide], the Kd in assay [1] is greater than 30 µM; in assay [2], greater than 30 µM; in assay [3], less than 0.01 µM.

`CCS(=O)(=O)Nc1ccc(-c2n[nH]c(Nc3cnccn3)c2C(N)=O)cc1OCc1ccc(F)cc1C` [Compound 171, 3-(4-(ethylsulfonamido)-3-((4-fluoro-2-methylbenzyl)oxy)phenyl)-5-(pyrazin-2-ylamino)-1H-pyrazole-4-carboxamide]: the Kd in assay [1] is greater than 30 µM; in assay [2], greater than 30 µM; in assay [3], less than 0.01 µM.
